# What was measured:
# [1] = tested on: conversion of CoA into 4′-phosphopantetheine in serum; type: biochemical; conditions: serum pre-treated with the agent, CoA 10 μM, 3 hours
# Experimental: (PpanSH=4′-phosphopantetheine; in all panels CoA was added to the indicated sera with a final starting concentration of 10 μM measured by HPLC analysis and percentages relative to CoA incubation for 3 hours in PBS (=100%) are indicated on the y-axis).
# Serum from various species (fetal calf, mouse and human) was pre-conditioned, and CoA conversion into 4′-phosphopantetheine was assessed. First, the effect of heat inactivation of the serum was studied. […] Second, the conversion of CoA to 4′-phosphopantetheine requires the hydrolysis of a phosphoanhydride bond, which is typically catalyzed by (pyro)phosphatases or hydrolases. The majority of enzymes in the known family of (pyro)phosphatases and hydrolases depend on metal ions for their activity. To test these candidates, EDTA was added to serum to chelate metal ions.
# [2] = Parallel Artificial Membrane Permeability Assay (PAMPA); type: in vitro ADME; conditions: PAMPA
# Experimental: FIG. 13E is a depiction of a Parallel Artificial Membrane Permeability Assay (PAMPA). Experiments were performed according to the manufacturer's instructions. In this assay, a two-well system is separated by an artificial lipid-oil-lipid membrane (shown in grey). To the lower (donor) compartment, a compound dissolved in buffer is added, the upper (acceptor) compartment contains only buffer. After 5 hours of incubation, concentration of compound is measured in both wells to assess its propensity to diffuse over the artificial membrane. The permeability was calculated according to the manufacturer's instruction (formulas are depicted to the right). Compounds that are below the assay threshold are predicted to be unable to pass membranes passively, whereas compounds above the threshold are able to pass membranes passively. Ceq=Equilibrium Concentration, CD=Concentration in donor well, VD=Volume of donor well (0.3 ml), CA=Concentration in acceptor well, VA=Volume of acceptor well (0.2 ml), P=Permeability, S=Membrane area (0.3 cm2), t=Incubation time (18000 s).
# PAMPA assay procedure: Parallel Artificial Membrane Permeability Assay (PAMPA) was performed and processed according to manufacturer's instructions (BD Gentest Pre-coated PAMPA plates). Briefly, two superimposed wells are separated by an artificial lipid-oil-lipid membrane. The compound of interest (PPanSH, CoA, caffeine, amiloride) was added to the bottom well in phosphate-buffered saline, whereas the top well was filled with phosphate-buffered saline alone. After 5 h of incubation at room temperature, concentrations of the different compounds were measured using UV-VIS absorption spectroscopy (BMG Labtech SPECTROstar Omega) along with calibration curves for all compounds. The permeability efficiency was further calculated according to manufacturer's instructions. For caffeine and amiloride, four replicates were performed; for PPanSH and CoA twelve replicates were performed. Caffeine and amiloride were obtained from Sigma.
Compound,effect on conversion (degradation) of CoA into 4′-phosphopantetheine in serum [1],membrane permeation (PAMPA) [2]
Nc1ncnc2c1ncn2[C@@H]1O[C@H](COP(=O)(O)OP(=O)(O)O)[C@@H](O)[C@H]1O [ADP],competitively blocked the conversion,
Nc1ncnc2c1ncn2[C@@H]1O[C@H](COP(=O)(O)OP(=O)(O)OP(=O)(O)O)[C@@H](O)[C@H]1O [ATP],competitively blocked the conversion,
"O=S(=O)(O)c1cc(N=C=S)ccc1C=Cc1ccc(N=C=S)cc1S(=O)(=O)O [DIDS, 4,4′-diisothiocyanatostilbene-2,2′ disulphonic acid]",able to inhibit,
O=C(O)CN(CCN(CC(=O)O)CC(=O)O)CC(=O)O [EDTA],completely prevented the formation of 4′-phosphopantetheine,
"c1ccc([C@H]2CN3CCSC3=N2)cc1 [Levamisole, levamisole]",only mild or no inhibition,
N=C(N)NC(=O)c1nc(Cl)c(N)nc1N [amiloride],,poorly permeating molecule
Cn1c(=O)c2c(ncn2C)n(C)c1=O [caffeine],,well-permeating compound
"[F-].[Na+] [sodium fluoride, Sodium fluoride]",only mild or no inhibition,
Cc1ccc(C(=O)Nc2ccc(S(=O)(=O)O)c3cc(S(=O)(=O)O)cc(S(=O)(=O)O)c23)cc1NC(=O)c1cccc(NC(=O)Nc2cccc(C(=O)Nc3cc(C(=O)Nc4ccc(S(=O)(=O)O)c5cc(S(=O)(=O)O)cc(S(=O)(=O)O)c45)ccc3C)c2)c1 [suramin],able to inhibit,

# Source: US20220133753A1, “COMPOSITIONS AND METHODS USEFUL FOR TREATING DISEASES CHARACTERIZED BY INSUFFICIENT PANTOTHENATE KINASE ACTIVITY” (Comet Therapeutics, Inc., priority 2016, published 2022)
